This note sets out measurements from US20230212124A1, “SMALL-MOLECULE INHIBITORS OF THE FRS2-FGFR INTERACTION” (UNIVERSITÄT ZÜRICH, priority 2020, published 2023).

Each structure is given as a SMILES string.

Data set [1] in a line: In vitro ADMET table: potency. It counts as cell-based. From the text: (§1) FIG. 16 Table showing the in vitro absorption, distribution, metabolism, elimination and toxicity (ADMET) properties of F3.14.
The target of another data set is T1, FRS2 (Homo sapiens, UniProt Q8WU20).
T1 construct: 6xHis
T1 sequence (Q8WU20 1-508): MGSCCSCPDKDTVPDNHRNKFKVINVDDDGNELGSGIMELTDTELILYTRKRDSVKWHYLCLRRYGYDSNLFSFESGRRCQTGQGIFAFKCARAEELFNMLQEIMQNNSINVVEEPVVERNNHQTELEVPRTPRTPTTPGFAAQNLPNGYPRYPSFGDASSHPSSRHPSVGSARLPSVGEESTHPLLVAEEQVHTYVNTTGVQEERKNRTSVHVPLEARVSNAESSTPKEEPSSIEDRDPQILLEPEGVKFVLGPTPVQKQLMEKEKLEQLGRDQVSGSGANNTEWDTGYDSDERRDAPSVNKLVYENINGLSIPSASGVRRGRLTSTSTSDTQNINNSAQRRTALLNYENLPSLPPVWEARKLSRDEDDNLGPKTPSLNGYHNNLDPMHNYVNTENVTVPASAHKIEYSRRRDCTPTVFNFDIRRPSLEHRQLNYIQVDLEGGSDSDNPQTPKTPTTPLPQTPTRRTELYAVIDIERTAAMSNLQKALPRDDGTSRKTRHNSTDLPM
The experiment in a line: Biophysical binding assays (nanoDSF, MST, NMR). As to conditions: MST and NMR analysis. The method, then: Nano Differential Scanning Fluorimetry (nanoDSF)
Purified FRS2 protein tagged with 6× Histidine residues and Guanine nucleotide-binding protein subunit beta (GB1) was diluted in the protein buffer (100 mM sodium phosphate, 50 mM NaCl, 0.5 mM EDTA, 50 mM arginine, 1 mM TCEP, pH 7.0) to final concentration of 30 μM. The compounds were dissolved in 100% at 50 or 100 mM and further diluted to 1 mM with a final concentration of 100% DMSO. Compound and protein were mixed at 1:1 ration yielding final concentrations of 15 μM and 500 μM for the compounds. The mixture was incubated at room temperature for 15 minutes before measurement. The measurement was performed on a Prometheus system in high sensitivity capillaries. Samples were subjected to a temperature gradient of 20 to 95° C. with 1° C./min intervals.
Microscale Thermophoresis (MST)
Purified FRS2 protein tagged with 6× Histidine residues and Guanine nucleotide-binding protein subunit beta (GB1) was labelled with 2nd generation BLUE-NHS dye. The protein was labelled at a final concentration of 20 µM with 60 μM dye. The labelling was performed in the protein buffer without arginine supplementation. Arginine was re-buffered to protein's buffer post-labelling. The compounds were dissolved in 100% at 50 or 100 mM and further diluted to 1 mM with a final concentration of 100% DMSO. […] The interaction was measured in two independent duplicates.
For orientation: In DSF a fluorescence change marks the thermal transition of the protein.

Data set [2] deals with FGFR-driven cancer cell lines. Description: Spheroid invasion assay. Particulars: all the FGFR-driven cancer cell lines tested. Type of data set: cell-based. The method, then:
Spheroid Invasion Assay (S/A) and Automated Cell Dissemination Counter (aCDc)
1000 cells/100 μl per well were seeded in cell-repellent 96 well microplate (650790, Greiner Bio-one). The cells were incubated at 37° C. overnight to form spheroids. 70 μl of the medium were removed from each well, and remaining medium with spheroid overlaid with 2.5% bovine collagen 1. Following the polymerization of collagen, fresh medium was added to the cells and treated with growth factors and/or with inhibitors. The cells were allowed to invade the collagen matrix for 24 h, after which they were fixed with 4% PFA and stained with Hoechst. Images were acquired on an Axio Observer 2 mot plus fluorescence microscope (Zeiss, Munic, Germany) using a 5×objective. Cell invasion is determined as the average of the distance invaded by the cells from the centre of the spheroid as determined using automated cell dissemination counter (aCDc) with our cell dissemination counter software aSDlcs (Kumar et al., Sci Rep 5, 15338 (2015)).

A short description of the next data set: In vivo pharmacokinetics. As to conditions: mice, intravenous. As to the method: 3 Healthy non-SCID mice were intravenously treated with F3.14—Blood samples were collected at 2, 4, 6, 8 and 24 hours after treatment. Serum from the collected blood samples were isolated and the concentration of F3.14 in the serum was measure to determine the intrinsic clearance of F3.14.

Data set [3] can be described thus: In vitro ADMET: toxicity (MTT). It counts as cell-based.
Text: as §1

The nature of data set [4]: In vitro ADMET: metabolic stability (intrinsic clearance, t½). It counts as in vitro ADME.
Text: as §1

Data set [5] can be described thus: In vitro ADMET: semi-thermodynamic solubility. Type of data set: physicochemical. Particulars: aqueous solutions.
Text: as §1

The subject of data set [6] is FGFR-driven cancer cell lines. The experiment in a line: Cell titer glo assay. Type of data set: cell-based. As to conditions: all the FGFR-driven cancer cell lines tested. The method, then: The metabolic activity and the proliferation of the cells were determined using the Cell Titer glo assay from Promega according to the manufacturer's instructions. In brief, 250 cells/100 μl/per well (for up to 72 h incubation) were seeded in Greiner Bio-One p-clear 384 well plates (655090, Greiner Bio-One) and incubated overnight at 37° C. The old media was then replaced with fresh serum-free media and the cells were treated with BGJ398 or F3.14 till the desired time point. Following appropriate incubation for each timepoint, 10 μl of the Cell titer glo reagent was added to each well (final concentration of cell titer glo reagent per well is 1:10) and incubated at 37° C. for 30 minutes. The luminescence was then measured with a signal integration time of 0.5 to 1 second per well.
A general note: ATP-based viability assays read luminescence as a measure of living cells.

A further data set concerns FGF signaling pathway. The experiment in a line: Immunoblotting / pathway analysis. Type of data set: cell-based. As to the method:
(§2) Cancer cells were treated with bFGF (100 ng/ml) and/or with compounds and lysed using Radioimmunoprecipitation assay (RIPA) buffer. RIPA buffer lysates were resolved by SDS-PAGE and transferred to a nitrocellulose membrane using a transfer apparatus according to the manufacturer's instructions (Bio-Rad). Membranes were probed with primary antibodies against phospho-FRS2, FRS2, ERK1/2, phospho-ERK1/2, AKT, phosphor-AKT, phospho-PKC and tubulin. HRP-linked secondary antibodies (1:5000) were used to detect the primary antibodies. Chemiluminescence detection was performed using ChemiDoc Touch Gel and Western Blot imaging system (BioRad).
as §2, with “RIPA” for “Cancer cells were treated with bFGF (100 ng/ml) and/or with compounds and lysed using Radioimmunoprecipitation assay (RIPA) buffer. RIPA”, “buffer FGFR-driven cell” for “buffer”, “phospho-AKT,” for “phosphor-AKT,”, “(BioRad). Integrated density of Immuno-reactive bands was quantified using Adobe Photoshop CS5.” for “(BioRad).”
On the technique in general: A western blot detects proteins with antibodies after separation by electrophoresis.

The nature of data set [7]: In vitro ADMET: permeability (efflux ratio). Type of data set: in vitro ADME.
Text: as §1

Consider `CC(C)C[C@@H](CO)NCc1cc(O)c2cc(F)ccc2n1` [Compound F3.14], for which the potency result in data set [1] is recorded as “high”. The “binding to FRS2” value on FRS2 is “confirmed the binding of F3.14 to FRS2”. Further, the “inhibition of cancer cell invasion” value in data set [2] was “effectively inhibits”. In addition, the tolerability result in the data set “In vivo pharmacokinetics” is recorded as “well-tolerated”. For the same compound, in data set [3], the toxicities entry is listed as “very low”. The intrinsic clearance entry in data set [4] is “moderate”. In data set [5], the solubility result is on record as “very good”. In addition, in data set [6], the “inhibition of cancer cell proliferation” value was “effectively inhibits”. Further, in the data set with FGF signaling pathway, the “effect on FGF signal transduction (phosphorylation of downstream effectors)” value was “inhibits the FGF signal transduction by inhibiting the phosphorylation of the downstream effectors”. For the same compound, the permeability entry in data set [7] is “good”.
